The record followed here is patent US9562035B2, “Benzamide derivative useful as FASN inhibitors for the treatment of cancer” (Janssen Pharmaceutica NV, priority 2013, dated 2017).

Bounds are passed on as bounds.

Assay [1] relates to A2780 ovarian cells. As to the kind of experiment: A2780 Ovarian Cell Proliferation Assay in Lipid Reduced Medium, with Palmitate (control). It is filed as cell-based. Conditions: Homo sapiens, A2780; lipid reduced medium, 25 μM palmitate, 96 h, MTT; read-out: Proliferation A2780 with Palmitate pIC50 (converted). The procedure, abridged:
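Read-out was MTT absorbance at 544 nm after 96 h at 37 °C. Cells grown overnight in RPMI1640/10% FCS were moved to 10% lipid-reduced serum with compound plus palmitate (final 25 μM, 0.2% fatty-acid-free BSA, 0.2% DMSO). IC50 came from least-squares curve fitting, expressed as −log(IC50).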

Assay [2] deals with T1, FASN Keto-reductase Domain (Homo sapiens, UniProt P49327).
T1 construct: 10 μL hFASN enzyme (full length, 300 ng, purified in house) and 360 μM NADPH; made in house
T1 sequence (P49327 whole entry, the tested form may be a part): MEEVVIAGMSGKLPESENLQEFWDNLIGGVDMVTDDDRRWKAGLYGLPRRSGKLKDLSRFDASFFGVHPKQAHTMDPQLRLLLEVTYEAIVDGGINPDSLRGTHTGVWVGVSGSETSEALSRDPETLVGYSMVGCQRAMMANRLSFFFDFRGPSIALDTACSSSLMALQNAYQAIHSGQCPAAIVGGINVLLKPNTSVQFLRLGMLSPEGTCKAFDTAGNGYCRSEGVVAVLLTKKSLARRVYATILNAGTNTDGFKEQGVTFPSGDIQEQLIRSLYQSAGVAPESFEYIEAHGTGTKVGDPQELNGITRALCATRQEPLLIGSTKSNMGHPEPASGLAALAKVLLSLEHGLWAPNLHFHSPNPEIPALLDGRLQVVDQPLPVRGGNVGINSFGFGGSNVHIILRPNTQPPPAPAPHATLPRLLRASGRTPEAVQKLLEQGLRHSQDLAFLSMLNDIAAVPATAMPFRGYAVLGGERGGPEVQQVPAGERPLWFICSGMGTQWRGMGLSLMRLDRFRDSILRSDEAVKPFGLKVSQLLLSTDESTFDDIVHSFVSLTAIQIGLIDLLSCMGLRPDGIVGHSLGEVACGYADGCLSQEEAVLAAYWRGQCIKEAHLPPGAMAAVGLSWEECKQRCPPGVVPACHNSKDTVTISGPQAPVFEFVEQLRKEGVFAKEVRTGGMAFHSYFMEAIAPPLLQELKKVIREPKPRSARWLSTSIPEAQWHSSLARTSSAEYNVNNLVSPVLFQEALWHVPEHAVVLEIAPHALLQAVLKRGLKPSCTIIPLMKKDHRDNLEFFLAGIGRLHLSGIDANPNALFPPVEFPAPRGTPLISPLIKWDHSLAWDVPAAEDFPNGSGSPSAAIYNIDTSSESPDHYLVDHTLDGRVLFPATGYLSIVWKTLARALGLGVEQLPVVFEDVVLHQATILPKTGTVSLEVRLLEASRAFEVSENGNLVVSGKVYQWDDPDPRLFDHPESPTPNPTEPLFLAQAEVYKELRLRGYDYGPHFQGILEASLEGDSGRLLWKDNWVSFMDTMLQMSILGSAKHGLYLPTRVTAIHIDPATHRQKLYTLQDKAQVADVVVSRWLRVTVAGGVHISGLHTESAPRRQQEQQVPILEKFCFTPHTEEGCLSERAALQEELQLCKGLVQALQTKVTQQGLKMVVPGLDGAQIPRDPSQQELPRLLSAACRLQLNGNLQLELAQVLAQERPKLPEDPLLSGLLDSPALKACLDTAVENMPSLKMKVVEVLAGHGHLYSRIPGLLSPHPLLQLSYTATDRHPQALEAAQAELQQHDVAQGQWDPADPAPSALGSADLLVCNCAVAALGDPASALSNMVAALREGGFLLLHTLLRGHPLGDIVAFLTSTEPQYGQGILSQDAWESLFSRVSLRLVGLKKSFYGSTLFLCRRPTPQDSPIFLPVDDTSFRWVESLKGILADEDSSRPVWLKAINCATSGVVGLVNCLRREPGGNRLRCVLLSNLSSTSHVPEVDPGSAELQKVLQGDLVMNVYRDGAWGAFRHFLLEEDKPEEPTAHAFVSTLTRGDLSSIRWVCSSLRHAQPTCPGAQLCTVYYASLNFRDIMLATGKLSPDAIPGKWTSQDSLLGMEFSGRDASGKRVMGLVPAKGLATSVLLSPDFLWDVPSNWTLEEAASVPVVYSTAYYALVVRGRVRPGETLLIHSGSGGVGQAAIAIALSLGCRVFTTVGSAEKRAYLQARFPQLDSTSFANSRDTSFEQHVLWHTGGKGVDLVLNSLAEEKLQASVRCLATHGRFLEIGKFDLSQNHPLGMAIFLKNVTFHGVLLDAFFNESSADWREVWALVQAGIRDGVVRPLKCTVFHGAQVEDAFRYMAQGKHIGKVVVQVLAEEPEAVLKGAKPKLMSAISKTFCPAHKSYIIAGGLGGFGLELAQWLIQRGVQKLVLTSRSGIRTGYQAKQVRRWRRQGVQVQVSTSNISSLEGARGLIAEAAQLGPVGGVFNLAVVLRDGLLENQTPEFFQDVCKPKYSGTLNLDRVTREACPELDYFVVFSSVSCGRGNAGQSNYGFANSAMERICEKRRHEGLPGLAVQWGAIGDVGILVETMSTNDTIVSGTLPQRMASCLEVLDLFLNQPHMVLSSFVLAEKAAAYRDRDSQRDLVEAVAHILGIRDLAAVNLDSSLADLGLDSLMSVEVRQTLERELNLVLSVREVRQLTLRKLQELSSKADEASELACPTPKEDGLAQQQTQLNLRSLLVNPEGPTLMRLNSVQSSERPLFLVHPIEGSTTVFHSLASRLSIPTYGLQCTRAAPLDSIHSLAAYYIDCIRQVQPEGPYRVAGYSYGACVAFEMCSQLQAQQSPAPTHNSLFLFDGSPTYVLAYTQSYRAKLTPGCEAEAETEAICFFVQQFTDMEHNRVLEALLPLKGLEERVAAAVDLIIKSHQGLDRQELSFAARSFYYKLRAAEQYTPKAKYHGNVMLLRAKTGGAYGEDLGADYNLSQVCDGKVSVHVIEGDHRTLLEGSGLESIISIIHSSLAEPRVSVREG
As to the kind of experiment: Fatty Acid Synthase Keto-Reductase Domain (FASN KR) Inhibition. It is filed as biochemical. Conditions: mean where tested more than once; read-out: FASN K-R Domain pIC50 (converted). The procedure, abridged: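 Keto-reductase activity followed as NADPH consumption (A340 drop between 0 and 20 min, room temperature) using in-house full-length hFASN, 360 μM NADPH and ethyl acetoacetate substrate (180 mM stock), pH 7.5 phosphate buffer.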

Assay [3] concerns the target T2, hFASN enzyme (full length) (Homo sapiens, UniProt P49327).
T2 construct: 10 μL hFASN enzyme (full length, 300 ng, purified in house); made in house
As to the kind of experiment: Fatty Acid Synthase (FASN) Inhibition Scintillation Proximity Assay. Format: biochemical. Conditions: for IC50: mean where tested more than once, ~ = standard error of pIC50 larger than 0.5; for inhibition at 10 µM: read-out: FASN % Effect @1E−05M. The procedure, abridged:
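Eight compound concentrations (0.01–30 μM) tested in pH 7.5 phosphate buffer with DTT; human full-length enzyme converted [3H]-acetyl-CoA plus malonyl-CoA, with NADPH, over 60 min at room temperature. Hydrophobic [3H]-palmitate detected by bead proximity scintillation imaging; control-normalised data fitted for IC50/pIC50.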
Background: In a scintillation proximity assay essentially only radioactivity close to the scintillant gives light.

Assay [4] relates to A2780 ovarian cells. The assay can be described thus: A2780 Ovarian Cell Proliferation Assay in Lipid Reduced Medium, without Palmitate. It is filed as cell-based. Conditions: Homo sapiens, A2780; lipid reduced medium, without palmitate, 96 h, MTT; read-out: Proliferation A2780 w/o Palmitate pIC50 (converted). The procedure, abridged:
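A2780 cells were seeded in 10% FCS medium and switched next day to 10% lipid-reduced serum without palmitate. Compounds at 0.01–30 μM were added with 0.2% DMSO, 0.2% fatty-acid-free BSA and 0.25% ethanol final. After 96 h, MTT absorbance at 544 nm was normalized to plate controls, and IC50/pIC50 came from a 4-parameter logistic fit.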

T2 sequence (P49327 whole entry): as the sequence (P49327 whole entry, the tested form may be a part) above

As for `Cc1ccc(C(=O)N2CCC(c3ccc(-c4cnn(C)c4)cc3)CC2)cc1NC(=O)c1cnc(NC(C)C)nc1` [Compound 146, 2-(isopropylamino)-N-(2-methyl-5-(4-(4-(1-methyl-1H-pyrazol-4-yl)phenyl)piperidine-1-carbonyl)phenyl)pyrimidine-5-carboxamide], the IC50 in the assay with A2780 ovarian cells [1] was more than 10000 nM; in assay [2] it was 32.4 nM; in assay [3] it was 19.1 nM; with A2780 ovarian cells [4] it was approximately 20.4 nM. In assay [3], the inhibition at 10 µM turned out to be 110%.
The corresponding values for `Cc1ccc(C(=O)N2CCC(c3ccc(-c4cnn(C)c4)cc3)CC2)cc1NC(=O)c1ccc(N2CCN(C)CC2)nc1` [Compound #112, N-(2-Methyl-5-(4-(4-(1-methyl-1H-pyrazol-4-yl)phenyl)piperidine-1-carbonyl)phenyl)-6-(4-methylpiperazin-1-yl)nicotinamide] are 2690 nM, 66.1 nM, 11.5 nM, 30.2 nM and 104%.
Regarding `Cc1ccc(C(=O)N2CC(c3ccc(-c4cnn(C)c4)cc3)C2)cc1NC(=O)c1ccc(NC(C)C)nc1` [Compound 24, 6-(isopropylamino)-N-(2-methyl-5-(3-(4-(1-methyl-1H-pyrazol-4-yl)phenyl)azetidine-1-carbonyl)phenyl)nicotinamide], the IC50 with A2780 ovarian cells [1] was more than 10000 nM; in assay [2], 38.9 nM; in assay [3] it was 33.9 nM; in the assay on A2780 ovarian cells [4] it was 85.1 nM. Further, the inhibition at 10 µM in assay [3] was determined as 111%.
On to `Cc1ccc(C(=O)N2CCC(c3ccc(-c4cnn(C)c4)cc3)CC2)cc1NC(=O)C1CCN(CC(C)C)CC1` [Compound 179, 1-isobutyl-N-(2-methyl-5-(4-(4-(1-methyl-1H-pyrazol-4-yl)phenyl)piperidine-1-carbonyl)phenyl)piperidine-4-carboxamide], for which the IC50 was more than 6170 nM in the assay with A2780 ovarian cells [1], 37.2 nM in assay [2], 26.3 nM in assay [3] and 57.5 nM in the assay on A2780 ovarian cells [4]. The inhibition at 10 µM in assay [3] was 108%.
The matching figures for `Cc1ccc(C(=O)N2CCC(c3ccc(-c4cnn(C)c4)cc3)C2)cc1NC(=O)c1ccc(N2CCOCC2)nc1` (stereo not shown) [Compound 204, N-(2-methyl-5-(3-(4-(1-methyl-1H-pyrazol-4-yl)phenyl)pyrrolidine-1-carbonyl)phenyl)-6-morpholinonicotinamide]: more than 10000 nM, 398 nM, 129 nM, 107 nM and 107%.
The corresponding values for `Cc1ccc(C(=O)N2CCC(c3ccc4c(c3)NC(=O)CC4)CC2)cc1NC(=O)c1ccc(NC(C)C)nc1` [Compound 35, 6-(isopropylamino)-N-(2-methyl-5-(4-(2-oxo-1,2,3,4-tetrahydroquinolin-7-yl)piperidine-1-carbonyl)phenyl)nicotinamide] are approximately 8910 nM, 794 nM, 437 nM, 676 nM and 99%.
The corresponding values for `CC(C)Nc1ccc(C(=O)Nc2cc(C(=O)N3CC(c4ccc(-c5cccnc5)cc4)C3)ccc2Cl)cn1` [Compound #73, N-(2-chloro-5-(3-(4-(pyridin-3-yl)phenyl)azetidine-1-carbonyl)phenyl)-6-(isopropylamino)nicotinamide] are 13500 nM, 85.1 nM, 32.4 nM, 148 nM and 93%.
Turning to `Cc1ccc(C(=O)N2CC(c3ccc(-c4cnn(C)c4)cc3)C2)cc1NC(=O)c1ccc2ccccc2n1` [Compound 79, N-(2-methyl-5-(3-(4-(1-methyl-1H-pyrazol-4-yl)phenyl)azetidine-1-carbonyl)phenyl)quinoline-2-carboxamide], the IC50 in the assay on A2780 ovarian cells [1] is approximately 9550 nM; in assay [2] it was 182 nM; in assay [3], 93.3 nM; with A2780 ovarian cells [4], 525 nM. The inhibition at 10 µM in assay [3] stood at 108%.
The matching figures for `Cc1ccc(C(=O)N2CCC(c3ccc(-c4cnn(C)c4)cc3)CC2)cc1NC(=O)C1CCN(CC(C)(C)C)C1` (stereo not shown) [Compound 192, N-(2-methyl-5-(4-(4-(1-methyl-1H-pyrazol-4-yl)phenyl)piperidine-1-carbonyl)phenyl)-1-neopentylpyrrolidine-3-carboxamide]: more than 10000 nM, 170 nM, 53.7 nM, 79.4 nM and 105%.
The matching figures for `Cc1ccc(C(=O)N2CC[C@H](c3ccc(-c4ccnn4C)cc3)[C@@H](C)C2)cc1NC(=O)c1ccc(Cl)nc1` (racemic) [Compound #110, (±)-6-Chloro-N-(2-methyl-5-((3R,4S)-3-methyl-4-(4-(1-methyl-1H-pyrazol-5-yl)phenyl)piperidine-1-carbonyl)phenyl)nicotinamide]: 6310 nM, 132 nM, 19.1 nM, 174 nM and 115%.
As for `Cc1ccc(C(=O)N2CCC(c3ccc(-c4cnn(C)c4)cc3)CC2)cc1NC(=O)C1CCN(C2CCC2)C1` (stereo not shown) [Compound 241, 1-cyclobutyl-N-(2-methyl-5-(4-(4-(1-methyl-1H-pyrazol-4-yl)phenyl)piperidine-1-carbonyl)phenyl)pyrrolidine-3-carboxamide], the IC50 in the assay with A2780 ovarian cells [1] is more than 10000 nM; in assay [2], 468 nM; in assay [3] it was 145 nM; with A2780 ovarian cells [4], 148 nM. Besides, the inhibition at 10 µM in assay [3] amounted to 101%.
The corresponding values for `Cc1ccc(C(=O)N2CCC(c3ncc(-c4cnn(C)c4)cn3)CC2)cc1NC(=O)c1ccc(Cl)nc1` [Compound 257, 6-chloro-N-(2-methyl-5-(4-(5-(1-methyl-1H-pyrazol-4-yl)pyrimidin-2-yl)piperidine-1-carbonyl)phenyl)nicotinamide] are more than 10000 nM, 2040 nM, 617 nM, 891 nM and 95%.
As for `CCc1ccc(C(=O)N2CCC(c3ccc(-c4cnn(C)c4)cc3)CC2)cc1NC(=O)c1ccc(NC(C)C)nc1` [Compound #256, N-(2-ethyl-5-(4-(4-(1-methyl-1H-pyrazol-4-yl)phenyl)piperidine-1-carbonyl)phenyl)-6-(isopropylamino)nicotinamide], the IC50 was 6310 nM in the assay with A2780 ovarian cells [1], 60.3 nM in assay [2], 25.7 nM in assay [3] and 8.91 nM with A2780 ovarian cells [4]. Besides, in assay [3], the inhibition at 10 µM is 116%.
The matching figures for `COc1cccc(-c2ccc(C3CCN(C(=O)c4ccc(C)c(NC(=O)c5ccc(NC(C)C)nc5)c4)CC3)cc2)c1` [Compound 201, 6-(isopropylamino)-N-(5-(4-(3′-methoxy-[1,1′-biphenyl]-4-yl)piperidine-1-carbonyl)-2-methylphenyl)nicotinamide]: 933 nM, 380 nM, 214 nM, 513 nM and 86%.
`Cc1ccc(C(=O)N2CC[C@H](c3ccc(-c4ccnn4C)cc3)[C@H](C)C2)cc1NC(=O)c1ccc(NC(C)C)nc1` (racemic) [Compound #76, (±)-6-(Isopropylamino)-N-(2-methyl-5-((3S,4S)-3-methyl-4-(4-(1-methyl-1H-pyrazol-5-yl)phenyl)piperidine-1-carbonyl)phenyl)nicotinamide]: the IC50 was 2000 nM in the assay with A2780 ovarian cells [1], 1380 nM in assay [2], 631 nM in assay [3] and 1050 nM in the assay with A2780 ovarian cells [4]. The inhibition at 10 µM in assay [3] was found to be 91%.
With `Cc1ccc(C(=O)N2CCC(c3ccc(-c4cnn(C)c4)cc3)CC2)cc1NC(=O)c1cncs1` [Compound 174, N-(2-methyl-5-(4-(4-(1-methyl-1H-pyrazol-4-yl)phenyl)piperidine-1-carbonyl)phenyl)thiazole-5-carboxamide], the IC50 with A2780 ovarian cells [1] is more than 10000 nM; in assay [2], 135 nM; in assay [3], 60.3 nM; with A2780 ovarian cells [4], 141 nM. Besides, in assay [3], the inhibition at 10 µM was 103%.
Turning to `Cc1ccc(C(=O)N2CCC(c3ccc(-c4cnn(C)c4)cc3)CC2)cc1NC(=O)C1CCCCC1` [Compound 86, N-(2-methyl-5-(4-(4-(1-methyl-1H-pyrazol-4-yl)phenyl)piperidine-1-carbonyl)phenyl)cyclohexanecarboxamide], the IC50 in the assay with A2780 ovarian cells [1] is more than 10000 nM; in assay [2], 75.9 nM; in assay [3], 22.4 nM; in the assay on A2780 ovarian cells [4], 182 nM. Also, the inhibition at 10 µM in assay [3] came to 106%.
